Results taken from patent publication US20230392123A1, “[…]-ASSEMBLED PEPTIDE HYDROGELS […]” (KATHOLIEKE UNIVERSITEIT LEUVEN, priority 2020, published 2023).
Entries after “also recorded” stand apart in the source; their conditions may differ.

Tested on: HepG2 cells
Test: Live/dead staining of HepG2 hydrogel spheroids in 384 well plate, high-content imaging
Format: cell-based
Conditions: 0.1% Triton X for 15 minutes, after 19 days of culture, toxic control
Method: High-throughput assays: HepG2 cells were cultured in 2D in DMEM (Invitrogen Cat #31885)+10% fetal bovine serum (FBS). Cells were detached at passage 12 by 0.05% trypsin and mixed (1×10^7 cells/ml) with Puramatrix™+10% Bovine Collagen I (Gibco, Ref: A10644-01, Auckland, NZ) and 1 ul of the mix was pipetted in each well of a 384 well plate (Greiner microplate, Ref: 787979) to form the HepG2 hydrogel spheroids (one hydrogel spheroid per well). Hydrogel spheroids were maintained in HepG2 medium and the medium change was handled automatically by a robotic platform (NextGenQBio) for 19 days. Live/dead staining (Invitrogen, Ref:3224) was performed on the cell in the spheroids according the manufacturer's instruction. Prior to live/dead staining, a group of the hydrogel spheroids were treated with 0.1% Triton X for 15 minutes as control. Nuclei was stained by Hoechst (1:1000 dilution) for 15 minutes. The plate was imaged by a high-content analysis system (Operetta, PerkinElmer®). […] This experiment highlights the potential of hydrogel spheroids to be used in a high-throughput set up specifically important for drug/compound screening and toxicity studies.

Triton X was tested, and the “live (green)/dead (red) staining of HepG2 cells in hydrogel spheroids” value was “minimal or no green colour; also recorded: cell death”.
